Results reported in patent US9326973B2, “Hepatitis C virus inhibitors” (priority 2012, dated 2016).

Experiments:
Assay type in all cases: cell-based, HCV genotype 1a
[1] = test system: HCV replicon, genotype 1a L31V variant with leucine 31 changed to valine in the NS5A protein; settings: test compound titrated in combination with a fixed 200 nM compound N47; genotype 1a L31V replicon
[2] = test system: HCV replicon, genotype 1a Y93H variant with tyrosine 93 changed to histidine in the NS5A protein; settings: test compound titrated in combination with a fixed 200 nM compound N47; genotype 1a Y93H replicon
Experimental: Combinations can be examined for synergistic activity using a variety of putative NS5A-targeting compounds and a variety of test compounds. […] The test compound can be chosen from compounds exemplified below, which were prepared by methods known in the art, or from others disclosed in the literature.
Similarly, BMS-790052 can be tested singly and in combination with a fixed amount of compound N47 in the HCV replicon cell based assay consisting of the genotype 1a Y93H variant with tyrosine 93 changed to histidine in the NS5A protein.

[3] = test system: HCV replicon, genotype-1a variant with glutamine 30 changed to glutamate in the NS5A protein; assay: microbe, parasite or virus in culture; settings: HCV replicon genotype 1a Q30E (Q→E) variant; test compound titrated with an NS5A-targeting compound (BMS-790052 fixed at 200 nM); ranking of synergist activity
Summary of the method: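 Synergy was assessed by combining several fixed amounts of an NS5A-targeting compound with a titration of the second compound of interest.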

Row | Compound | Fold-Synergistic G-1a (L31V) [1] | Fold-Synergistic G-1a (Y93H) [2] | Fold-Synergistic 1a (Q30E) [3]
1 | O=C(Nc1ccc(/C=C/c2ccc(NC(=O)[C@@H]3CCCN3C(=O)Cc3cccnc3)nc2)cn1)C1CCCN1C(=O)Cc1cccnc1 (stereo partly drawn) | <10 Fold | <10 Fold | 
2 | COC(=O)N[C@@H](C(=O)N1CCC[C@H]1c1ncc(-c2ccc(-c3ccc(-c4cnc([C@@H]5CCCN5C(=O)[C@H](NC(=O)OC)c5ccccc5)[nH]4)cc3)cc2)[nH]1)c1ccccc1 | <10 Fold |  | 
3 | CN(C)[C@@H](C(=O)N1CCCC[C@H]1c1ncc(-c2ccc(-c3ccc(-c4cnc([C@@H]5CCCCN5C(=O)[C@@H](c5ccccc5)N(C)C)[nH]4)cc3)cc2)[nH]1)c1ccccc1 |  | <10 Fold | 
4 | COC(=O)N[C@H](C(=O)N1CCC[C@H]1c1nc2cc(C#Cc3ccc4[nH]c([C@@H]5CCCN5C(=O)[C@@H](NC(=O)OC)C(C)C)nc4c3)ccc2[nH]1)C(C)C |  | <10 Fold | 
5 | COC(=O)N[C@@H](C)C(=O)N1[C@@H]2CC[C@@H](C2)[C@H]1c1nc(-c2ccc(-c3ccc(C4=CNC([C@@H]5[C@H]6CC[C@H](C6)N5C(=O)[C@H](C)NC(=O)OC)N4)cc3)cc2)c[nH]1 (stereo partly drawn) | >10 Fold | <10 Fold | 
6 | COC(=O)N[C@H](C(=O)N1C[C@H](C)C[C@H]1c1ncc(-c2ccc(-c3ccc(-c4cnc([C@@H]5C[C@@H](C)CN5C(=O)[C@@H](NC(=O)OC)C(C)C)[nH]4)cc3)cc2)[nH]1)C(C)C | >100 Fold | >100 Fold | 
7 | COC(=O)N[C@H](C(=O)N1CCC[C@H]1C1=C(c2ccc(C#Cc3ccc4[nH]c([C@@H]5CCCN5C(=O)[C@@H](NC(=O)OC)C(C)C)nc4c3)cc2)NCN1)C(C)C | <10 Fold | >10 Fold | 
8 | COC(=O)N[C@@H](C(=O)N1CCCC1c1ncc(C#CC#Cc2cnc([C@@H]3CCCN3C(=O)[C@H](NC(=O)OC)c3ccccc3)[nH]2)[nH]1)c1ccccc1 (stereo partly drawn) | <10 Fold | <10 Fold | 
9 | COC(=O)NC(C(=O)N1[C@@H]2C[C@@H]2C[C@H]1c1nc2ccc(-c3ccc4cc(-c5ccc6nc([C@@H]7C[C@H]8C[C@H]8N7C(=O)[C@@H](NC(=O)OC)C(C)C)[nH]c6c5)ccc4c3)cc2[nH]1)C(C)C (stereo partly drawn) | >10 Fold | >10 Fold | 
10 | COC(=O)N[C@H](C(=O)N1C(c2nc3ccc4cc(C#Cc5ccc6c(ccc7nc([C@@H]8CC9CC9N8C(=O)[C@@H](NC(=O)OC)C(C)C)[nH]c76)c5)ccc4c3[nH]2)C[C@H]2C[C@H]21)C(C)C (stereo partly drawn) | <10 Fold | >100 Fold | 
11 | COC(=O)N[C@H](C(=O)N1[C@@H]2C[C@@H]2C[C@H]1C(=O)Nc1ccc(C23CC4C5CC6(c7ccc(NC(=O)[C@@H]8C[C@H]9C[C@H]9N8C(=O)[C@@H](NC(=O)OC)C(C)C)cc7)CC4C(C2)C(C6)C5C3)cc1)C(C)C | <10 Fold | <10 Fold | 
12 | COC(=O)NC(C(=O)N1[C@@H]2C[C@@H]2C[C@H]1c1ncc(-c2cccc(-c3ccc4cc(-c5cnc([C@H]6C[C@@H]7C[C@@H]7N6C(=O)[C@@H](NC(=O)OC)C(C)C)[nH]5)ccc4c3)c2)[nH]1)C(C)C (stereo partly drawn) | <10 Fold | >10 Fold | 
13 | COC(=O)N[C@H](C(=O)N1[C@@H]2C[C@@H]2C[C@H]1c1ncc(-c2ccc(C3C[C@H]3c3ccc(-c4cnc([C@@H]5C[C@H]6C[C@H]6N5C(=O)[C@@H](NC(=O)OC)C(C)C)[nH]4)cc3)cc2)[nH]1)C(C)C (stereo partly drawn) | >10 Fold | >10 Fold | 
14 | COC(=O)N[C@H](C(=O)N1CCC[C@H]1c1cn(-c2ccc(-c3ccc(-n4cnc([C@@H]5CCCN5C(=O)[C@@H](NC(=O)OC)C(C)C)c4)cc3)cc2)cn1)C(C)C | >10 Fold | >10 Fold | 
15 | COC(=O)NC(C(=O)N1[C@@H](C)CC[C@H]1C1=NCC(c2ccc(-c3cnc(-c4cnc([C@@H]5CC[C@H](C)N5C(=O)[C@@H](NC(=O)OC)[C@H]5C[C@@H](C)O[C@@H](C)C5)[nH]4)c4cccn34)cc2)N1)[C@H]1C[C@@H](C)O[C@@H](C)C1 (stereo partly drawn) | >10 Fold | >100 Fold | 
16 | COc1cc2ccccc2c(C(=O)N2CCCC2c2ncc(-c3ccc(-c4ccc(-c5cnc(C(NC(=O)C(C)(C)C)C(C)C)[nH]5)cc4)cc3)[nH]2)n1 (stereo not drawn) [Compound Y-13] |  |  | >100 fold
17 | Cc1ccc(S(=O)(=O)N[C@H](c2ncc(-c3ccc(-c4ccc(-c5cnc([C@@H](NS(=O)(=O)c6ccc(C)cc6)C(C)C)[nH]5)cc4)cc3)[nH]2)C(C)C)cc1 [Compound Y-58] |  |  | >100 fold

Row | Compound | Fold-Synergistic G-1a (L31V) [1] | Fold-Synergistic G-1a (Y93H) [2] | Fold-Synergistic 1a (Q30E) [3]
18 | CC(C)(C)[C@H](NC(=O)C1C2C3CCC(C3)C12)c1nc(-c2ccc(-c3ccc(-c4c[nH]c([C@@H](NC(=O)C5C6C7CCC(C7)C56)C(C)(C)C)n4)cc3)cc2)c[nH]1 (stereo partly drawn) [Compound Y-62] |  |  | >100 fold
19 | COC(C)(C)C(=O)N[C@H](c1nc(-c2ccc(-c3ccc(-c4c[nH]c([C@@H](NC(=O)C(C)(C)OC)C5(C)CC5)n4)cc3)cc2)c[nH]1)C1(C)CC1 [Compound Y-63] |  |  | >100 fold
20 | CC(C)(OCC(F)F)C(=O)N[C@H](c1nc(-c2ccc(-c3ccc(-c4c[nH]c([C@@H](NC(=O)C(C)(C)OCC(F)F)C5(C)CC5)n4)cc3)cc2)c[nH]1)C1(C)CC1 [Compound Y-64] |  |  | >100 fold
21 | CC(C)(C)C(=O)N[C@H](c1ncc(-c2ccc(-c3ccc(-c4cnc([C@@H](NC(=O)C(C)(C)C)C(C)(C)CF)[nH]4)cc3)cc2)[nH]1)C(C)(C)CF [Compound Y-68] |  |  | >100 fold
22 | CC(C)(C)[C@H](NC(=O)C1CCC(C(F)F)CC1)c1nc(-c2ccc(-c3ccc(-c4c[nH]c([C@@H](NC(=O)C5CCC(C(F)F)CC5)C(C)(C)C)n4)cc3)cc2)c[nH]1 (stereo partly drawn) [Compound Y-71] |  |  | >100 fold
23 | CC(C)(C)[C@H](NC(=O)c1ccccc1O)c1nc(-c2ccc(-c3ccc(-c4c[nH]c([C@@H](NC(=O)c5ccccc5O)C(C)(C)C)n4)cc3)cc2)c[nH]1 [Compound Y-72] |  |  | >100 fold
24 | CC(C)(C)[C@H](NC(=O)Cc1ccccc1OC(F)(F)F)c1nc(-c2ccc(-c3ccc(-c4c[nH]c([C@@H](NC(=O)Cc5ccccc5OC(F)(F)F)C(C)(C)C)n4)cc3)cc2)c[nH]1 [Compound Y-73] |  |  | >100 fold
25 | CC(C)(C)[C@H](NC(=O)C12CCC(CC1)CO2)c1nc(-c2ccc(-c3ccc(-c4c[nH]c([C@@H](NC(=O)C56CCC(CC5)CO6)C(C)(C)C)n4)cc3)cc2)c[nH]1 [Compound Y-74] |  |  | >100 fold
26 | CC(C)(C)[C@H](NC(=O)[C@@]1(C)CC(F)(F)CCO1)c1nc(-c2ccc(-c3ccc(-c4c[nH]c([C@@H](NC(=O)[C@@]5(C)CC(F)(F)CCO5)C(C)(C)C)n4)cc3)cc2)c[nH]1 [Compound Y-75] |  |  | >100 fold
27 | CC(C)(C)[C@H](NC(=O)[C@@]1(C)CC(F)(F)CO1)c1nc(-c2ccc(-c3ccc(-c4c[nH]c([C@@H](NC(=O)[C@@]5(C)CC(F)(F)CO5)C(C)(C)C)n4)cc3)cc2)c[nH]1 [Compound Y-77] |  |  | >100 fold
28 | CC(C)[C@H](NC(=O)[C@@]1(C)CCC(F)(F)CO1)c1nc(-c2ccc(-c3ccc(-c4c[nH]c([C@@H](NC(=O)[C@@]5(C)CCC(F)(F)CO5)C(C)C)n4)cc3)cc2)c[nH]1 [Compound Y-78] |  |  | >100 fold
29 | CC(C)[C@H](NC(=O)[C@@]1(C)CC(F)(F)CCO1)c1nc(-c2ccc(-c3ccc(-c4c[nH]c([C@@H](NC(=O)[C@@]5(C)CC(F)(F)CCO5)C(C)C)n4)cc3)cc2)c[nH]1 [Compound Y-79] |  |  | >100 fold
30 | CC(C)[C@H](NC(=O)[C@@]1(C)CC(F)(F)CO1)c1nc(-c2ccc(-c3ccc(-c4c[nH]c([C@@H](NC(=O)[C@@]5(C)CC(F)(F)CO5)C(C)C)n4)cc3)cc2)c[nH]1 [Compound Y-80] |  |  | >100 fold
31 | CC1([C@H](NC(=O)[C@@]2(C)CCC(F)(F)CO2)c2nc(-c3ccc(-c4ccc(-c5c[nH]c([C@@H](NC(=O)[C@@]6(C)CCC(F)(F)CO6)C6(C)CC6)n5)cc4)cc3)c[nH]2)CC1 [Compound Y-81] |  |  | >100 fold
32 | CC1([C@H](NC(=O)[C@@]2(C)CC(F)(F)CCO2)c2nc(-c3ccc(-c4ccc(-c5c[nH]c([C@@H](NC(=O)[C@@]6(C)CC(F)(F)CCO6)C6(C)CC6)n5)cc4)cc3)c[nH]2)CC1 [Compound Y-82] |  |  | >100 fold
33 | CC1([C@H](NC(=O)[C@@]2(C)CC(F)(F)CO2)c2nc(-c3ccc(-c4ccc(-c5c[nH]c([C@@H](NC(=O)[C@@]6(C)CC(F)(F)CO6)C6(C)CC6)n5)cc4)cc3)c[nH]2)CC1 [Compound Y-83] |  |  | >100 fold
